“Also recorded” adds a separate entry of the source.
What was measured:
[1] = test system: UBXN2A promoter; assay: UBXN2A promoter luciferase high-throughput drug screen in HCT-116 cells; assay type: cell-based, human
Method: Our in vivo results encouraged us to screen for compounds that can enhance expression of UBXN2A. Using the UBXN2A promoter upstream of a luciferase construct that was transiently transfected to HCT-116 cells, we performed a high-throughput drug screen with 1800 FDA approved drugs, synthetic compounds, and natural products. Forty-eight hours after transfection, cells were treated with compounds for 24 hours in triplicate (FIG. 16A). […] We looked at protein expression of UBXN2A as well as P47 (another member of the UBXD family) to confirm the selectivity of VH as a selective enhancer of UBXN2A protein in cells. […] We observed a different level of VH-dependent UBXN2A induction in different segments of the gastrointestinal system (esophagus to rectum; data not shown).
A cell-based screen was conducted in search of compounds that induce the expression of the UBXN2A gene. The 3.9K base of DNA upstream from the UBXN2A gene on human chromosome 2, including endogenous promoters and necessary enhancers as well as untranslated exon 1, was cloned into MCS-mGL.1, a Gaussia luciferase vector, and transiently transfected into HCT-116 colon cancer cells, with empty MCS-mGL.1 for background expression. […] A glow luciferase activity assay was conducted in triplicate followed by semi-quantitative RT-PCR and WB analysis for UBXN2A, p47 (negative control), or GAPDH± Veratrine or its purified form VTD. […]

[2] = test system: p53; assay: Western blot of p53 in cytoplasmic and nuclear fractions of HCT-116 cells; assay type: cell-based, human; conditions: VTD 10 and 30 μM
Source text: We next performed a clonogenic survival assay (S4E) to determine colony formation in cancer cells in the presence and absence of VTD. […] At the same time, we measured the mot-2, p53, and UBXN2A protein levels in all these cell lines. […] To verify whether VTD-induced cell death is mediated through the UBXN2A-mot-2-p53 axis, we looked at the expression of p53 in the cytoplasm and nucleus of HCT-116 cells following VTD treatment. […] Due to a high cell death in higher doses of VTD, we could not use WB analysis for reliable p53 and UBXN2A detection and quantification. Finally, we checked the effect of VTD on non-cancerous cell lines. […]
Nuclear and cytoplasmic fractions were prepared from the cells using NE-PER Nuclear and Cytoplasmic Extraction Reagents (Pierce, IL, USA) according to the manufacturer's instructions. Protein concentrations were determined by BCA assay followed by SDSPAGE and WB analysis with the appropriate antibodies (Supplementary Table S3).
FIG. 17: Induction of apoptosis and in vitro cytotoxicity by VTD in a human cancer cell line with different statuses of p53 and mot-2. […] After incubation, dead cells were washed off, and the remaining attached cells were calculated by counting in five random fields using the Axiovert 200 M inverted microscope and AxioVision software (cell detachment assay). The % of cells attached was calculated as % of control cells. […]

For `COc1ccc(C(=O)O[C@H]2CC[C@@]3(C)[C@@H]4CC[C@H]5[C@]6(O)C[C@H](O)[C@@]7(O)[C@@H](CN8C[C@@H](C)CC[C@H]8[C@@]7(C)O)[C@]6(O)C[C@@]53O[C@]24O)cc1OC` [VTD, Veratridine], the UBXN2A promoter transactivation [1] was “transactivates the UBXN2A promoter” and the “p53 levels in cytoplasm and nucleus (WB)” value [2] was “increases WT-p53 levels both in the cytoplasm and nucleus; also recorded: increases p53 in both cytoplasm and nucleus compartments in a dose-dependent manner”.

Source: patent US12233129B2, “Methods and compositions for the treatment of cancer” (priority 2019, dated 2025)
